# From patent US12453757B2, “Method for ameliorating autism symptoms by pharmacological activation of the neurotensin receptor 1 (NTSR1)” (New York Institute of Technology, priority 2022, dated 2025)
# Counter-ions that a name gives are not always drawn. Numbered stars: 1 amine (or outer) side, 2 acyl side, 3 side chain; on linkers, the order of the positions; unused ones are H or OH. Square brackets hold non-standard residues; d marks the D form. Peptide text beside a SMILES is read from it. X1 = NCCCC[C@H](N)CN([C@@H](CCCCN)C(=O)[*:2])[*:1]; Tle = CC(C)(C)[C@H](N)C(=O)O
# Legend:
# [1] = test system: SHANK3 haploinsufficiency mouse model of autism; test: Odor detection in novel background odors (go/no-go behavioral task), SHANK3 haploinsufficiency mice; format: in vivo; settings: 6 mice, 0.13 mg/kg subcutaneous in saline, 30 minutes before test, chance 0.5, optimal 1
# Experimental: (§1) FIG. 1: Behavioral task used to test the effect of PD149163. Water-deprived, head-fixed mice were trained to identify target odors in the presence of background odors. […] If the target was the “go target” odors and the mouse licked, the mouse was rewarded with a small amount water. If the mouse wrongly licked the “no-go target” odors, no water was delivered and it was given a time out. After 10-13 days, mice performance exceeded 80%. The mice were then tested with the test set, that consisted of the same target odors but with novel background odors.
# (§2) In order to test the effect of NTSR1 agonists, a novel behavioral task was used developed in the lab. In this task (see FIG. 1), water-deprived, head-fixed mice were trained to identify target odors in the presence of background odors. If the mouse responded to the go target odors, it was rewarded with water. If the mouse wrongly responded to the no-go target odors, no water was delivered and it experienced a time out. Chance performance was 0.5 and optimal performance was 1. After mice mastered this task (performance>0.8) with a set of known background odors after ˜10 days of training, the animals were tested with the same targets but in the presence of novel background odors. The performance of WT mice with novel background odors is above chance (0.74, 95% CI: 0.68-0.80, 3 WT mice). […]
# [2] = test system: CNTNAP2 knockout mouse model of autism; test: Odor detection in novel background odors (go/no-go behavioral task), CNTNAP2 knockout mice; format: in vivo
# Experimental: as §1
# In order to test the effect of NTSR1 agonists, a novel behavioral task was used developed in the lab. In this task (see FIG. 1), water-deprived, head-fixed mice were trained to identify target odors in the presence of background odors. If the mouse responded to the go target odors, it was rewarded with water. If the mouse wrongly responded to the no-go target odors, no water was delivered and it experienced a time out. Chance performance was 0.5 and optimal performance was 1. After mice mastered this task (performance>0.8) with a set of known background odors after ˜10 days of training, the animals were tested with the same targets but in the presence of novel background odors. The performance of WT mice with novel background odors is above chance (0.74, 95% CI: 0.68-0.80, 3 WT mice).
# This novel behavioral task was used to test the effects of the neurotensin receptor 1 agonists. The performances of both mouse models of autism without PD149163 (a peptide neurotensin receptor 1 agonist) were lower than the performance of the WT mice (SHANK3 haploinsufficiency: 0.62, 95% CI: 0.59-0.66, 6 mice, each mouse tested on 4 different days, CNTNAP2 knockout: 0.61, 95% CI: 0.56-0.65, 4 mice) (see FIG. 2). […] This dosage reversed the recognition deficit in novel environments shown by both mouse models of autism, with performance that matched the performance of the WT mice (SHANK3 haploinsufficiency: 0.81, 95% CI: 0.77-0.85, 6 mice, each mouse tested on 2 different days, CNTNAP2 knockout: 0.82, 95% CI: 0.77-0.86, 4 mice). […]
# [3] = test system: SHANK3 and CNTNAP2 mouse models of autism; test: Odor detection in novel background odors, both mouse models of autism pooled (dose response, duration); format: in vivo
# Experimental: FIG. 3: Performance of odor detection in novel environments as a function of the dose of PD149163 injected subcutaneously using saline as vehicle. The bars represent the average performance for all 10 tested mice (four CNTNAP2 mice and six SHANK3 mice) at the three doses tested. The error bars are the 95% CI. The lines represent the performance for individual mice. The p values were calculated using paired t-test to compare the average performances of the 10 tested mice using the 0.13 mg/kg against the 0.065 mg/kg dose and the no drug condition.
# as §2
# mice = test: Lethargy side effect after injection; format: in vivo, mouse
smiles,measurement,setting,value
"CCOC(=O)[C@H](CC(C)C)NC(=O)[C@@H](NC(=O)[C@H](Cc1c[nH]c2ccccc12)NC(=O)[C@@H]1CCCN1C(=O)[C@H](CCCCN)NC[C@@H](N)CCCCN)C(C)(C)C [PD149163, N2-[(2S)-2,6-Diaminohexyl]-L-lysyl-L-prolyl-L-tryptophyl-3-methyl-L-valyl-L-Leucine ethyl ester tetrahydrochloride hydrate] (H-[X1]PW[Tle]L-OEt)",Performance of odor detection with novel background odors,[1],0.81
same,Performance of odor detection with novel background odors,"[2]; CNTNAP2 knockout male mice (2 mice, 2 sessions), 0.39 mg/kg in PEG400 (80 μg/ml), two subcutaneous injections 1 hour and 30 minutes before task",0.76
same,Performance of odor detection with novel background odors,"[2]; CNTNAP2 knockout male mice (2 mice, 5 sessions), 0.13 mg/kg subcutaneous in saline, 30 minutes before test",0.54
same,Performance of odor detection with novel background odors,"[2]; CNTNAP2 knockout, 4 mice, 0.13 mg/kg subcutaneous in saline, 30 minutes before test, chance 0.5, optimal 1",0.82
same,Duration of drug effects on performance,"[3]; 0.13 mg/kg subcutaneous in saline, returned to baseline the next day",less than 24 hours
same,Improvement of behavior (odor detection performance),"[3]; half dose 0.065 mg/kg subcutaneous, saline as vehicle",did not produce an improvement
same,Lethargy,"mice; 0.26 mg/Kg subcutaneous, PEG400 as vehicle, 2 SHANK3 mice",no lethargy
same,Lethargy,"mice; 0.26 mg/kg subcutaneous, saline as vehicle",produced lethargy
same,Lethargy,mice; therapeutic dose by intraperitoneal injection instead of subcutaneous,resulted also in lethargy
